Source: US20010029239A1, “New herbicidal compositions” (priority 1999, published 2001)

Assay: Pre-emergence (experimental example 1) and post-emergence (experimental example 2) herbicidal tests, reported together
Assay type: in vivo
Conditions: 336 h; one or more weed species, in one or both of experimental examples 1 (pre-emergence, 250 g/ha) and 2 (post-emergence, 250 g/ha or less); two weeks after treatment, versus untreated control; read-out: reduction in the growth of one or more weed species
Description: Seed of various broad-leaf and grass weed species were sown and herbicide, dissolved in a mixture of acetone and water, was applied at a rate of 250 g/ha to the soil surface. The said weeds are Amaranthus retroflexus, Abutilon theophrasti, Galium aparine, Ipomoea purpurea, Setaria viridis, Alopecurus myosuroides, Avena fatua and Echinochloa crus-calli. Two weeks after treatment the percentage reduction in plant growth was assessed in comparison with an untreated control. Seed of the various weed species, as listed in experimental example 1, were sown and grown up to a 1-3 leaves stage. A post-emergence application of herbicide, dissolved in a mixture of acetone and water, was applied at a rate of 250 g/ha or less. Two weeks after treatment the percentage reduction in plant growth was assessed, in comparison with an untreated control.
COC=C(Oc1cccc(OC(=COC)C(=O)OC)c1C(=O)O)C(=O)OC [Compound 1, 2,6-bis(2-methoxy-1-methoxycarbonyl-vinyloxy)benzoic acid] gave a pest or weed control at up to 250 g/ha of no less than 80%. In the case of COC=C(Oc1cccc(COC(C)=O)c1C(=O)O)C(=O)OC [Compound 2, methyl 2-(3-acetoxymethyl-2-carboxyphenoxy)-3-methoxypropenoate], the pest or weed control at up to 250 g/ha is reported as no less than 80%. With C#CCOC(=O)c1c(OC(=COC)C(=O)OC)cccc1OC(=COC)C(=O)OC [Compound 13, propargyl 2,6-bis(2-methoxy-1-methoxycarbonyl-vinyloxy)benzoate] the pest or weed control at up to 250 g/ha was no less than 80%. COC=C(Oc1cccc(COc2ccccc2)c1C(=O)O)C(=O)OC [Compound 16, methyl 2-(2-carboxy-3-phenoxymethylphenoxy)-3-methoxypropenoate] showed a pest or weed control at up to 250 g/ha of no less than 80%. Work on COC=C(Oc1cccc(COc2ccc(Cl)cc2)c1C(=O)O)C(=O)OC [Compound 17, methyl 2-(2-carboxy-3-(4-chlorophenoxymethyl)phenoxy)-3-methoxypropenoate] yielded a pest or weed control at up to 250 g/ha of no less than 70%. Compound COC=C(Oc1cccc(COc2ccc(C#N)cc2)c1C(=O)O)C(=O)OC [Compound 18, methyl 2-[2-carboxy-3-(4-cyanophenoxymethyl)phenoxy]-3-methoxypropenoate] has a pest or weed control at up to 250 g/ha of no less than 70%. Work on COC=C(Oc1cccc(COc2ccc(OC)cc2)c1C(=O)O)C(=O)OC [Compound 19, methyl 2-[2-carboxy-3-(4-methoxyphenoxymethyl)phenoxy]-3-methoxypropenoate] yielded a pest or weed control at up to 250 g/ha of no less than 80%. COC=C(Oc1cccc(COc2ccc(C)cc2)c1C(=O)O)C(=O)OC [Compound 20, methyl 2-[2-carboxy-3-(4-methylphenoxymethyl)phenoxy]-3-methoxypropenoate] showed a pest or weed control at up to 250 g/ha of no less than 70%.
